Laboratory results published in US9376376B2, “Substitute diphenylamine compounds use thereof as antitumor agents” (SINOCHEM CORPORATION, priority 2012, dated 2016).

Tests used:
leukemia HL-60 cells = test: In vitro cell inhibition assay (MTT method), HL-60; format: cell-based, human; settings: 48 h
Description: (§1) The human cancer cell lines used for this assay were lung cancer A549 and leukemia HL-60.
(§2) The A549 or HL-60 cells were picked up from cell incubator, after washed for twice using PBS, cells were digested by 0.25% trypsin, and then add medium to terminate the digestion. After cells were collected using centrifuge and re-suspended, count cells under inverted microscope and add medium to make a density was 5×10^4 cells/mL. After 100 μL aliquots were added to each well of 96-well microtiter plates, cells were cultured in 5% incubator for overnight at 37° C., then the different concentration compounds were added to each well. After incubation for 48 h, MTT solution was added to each well and plates were then incubated for 4 h. The MTT tetrazolium was reduced to formazan by living cells. Then the formazan crystals were dissolved though adding DMSO to each well. The absorbance was read at 570 nm with a microplate reader.

lung cancer A549 cell = test: In vitro cell inhibition assay (MTT method), A549; format: cell-based, human; settings: 48 h incubation
Description: as §1, §2

Compound	Proliferation inhibitory effect of the compounds on HL-60 cells (% of Control) (leukemia HL-60 cells; concentration 0.01 μM)	Proliferation inhibitory effect of the compounds on HL-60 cells (% of Control) (leukemia HL-60 cells; concentration 0.1 μM)	Proliferation inhibitory effect of the compounds on HL-60 cells (% of Control) (leukemia HL-60 cells; concentration 1 μM)	Proliferation inhibitory effect of the compounds on HL-60 cells (% of Control) (leukemia HL-60 cells; concentration 10 μM)	Proliferation inhibitory effect of the compounds on HL-60 cells (% of Control) (leukemia HL-60 cells; concentration 100 μM)	Proliferation inhibitory effect of the compounds on A549 cell (% of Control) (lung cancer A549 cell; 0.01 μM)	Proliferation inhibitory effect of the compounds on A549 cell (% of Control) (lung cancer A549 cell; 0.1 μM)	Proliferation inhibitory effect of the compounds on A549 cell (% of Control) (lung cancer A549 cell; 1 μM)	Proliferation inhibitory effect of the compounds on A549 cell (% of Control) (lung cancer A549 cell; 10 μM)	Proliferation inhibitory effect of the compounds on A549 cell (% of Control) (lung cancer A549 cell; 100 μM)
N#Cc1c(Cl)c(Cl)c(Nc2c(Cl)cc([N+](=O)[O-])cc2Cl)c(C#N)c1Cl [Compound 6-99]	8.6 % of Control	34.2 % of Control	60.2 % of Control	56.5 % of Control	54.8 % of Control	0 % of Control	0 % of Control	55.0 % of Control	83.6 % of Control	86.3 % of Control
N#Cc1c(Cl)c(Cl)c(Nc2c(Cl)cc([N+](=O)[O-])cc2Br)c(C#N)c1Cl [Compound 6-113]	−3.8 % of Control	8.8 % of Control	9.3 % of Control	85.4 % of Control	93.1 % of Control	9.2 % of Control	2.9 % of Control	2.6 % of Control	75.6 % of Control	93.7 % of Control
N#Cc1c(Cl)c(Cl)c(Nc2c(Br)cc([N+](=O)[O-])cc2Br)c(C#N)c1Cl [Compound 6-114]	−0.4 % of Control	10.0 % of Control	20.7 % of Control	87.5 % of Control	93.2 % of Control	10.1 % of Control	2.8 % of Control	11.5 % of Control	82.1 % of Control	94.9 % of Control
Cc1c(Cl)c([N+](=O)[O-])cc([N+](=O)[O-])c1Nc1c(F)cccc1F [Compound 22-33]	−4.9 % of Control	−1.8 % of Control	54.3 % of Control	66.2 % of Control	81.2 % of Control	−1.6 % of Control	−1.1 % of Control	61.3 % of Control	78.7 % of Control	90.3 % of Control
Cc1c(Cl)c([N+](=O)[O-])cc([N+](=O)[O-])c1Nc1c(F)cc(Cl)cc1F [Compound 22-93]	−3.6 % of Control	−7.1 % of Control	6.8 % of Control	70.4 % of Control	95.4 % of Control	−2.2 % of Control	−1.8 % of Control	−0.2 % of Control	73.7 % of Control	91.4 % of Control
